{
  "source": "patent US10800807B2",
  "about": "“TGR5 modulators and methods of use thereof” (Intercept Pharmaceuticals, Inc., priority 2015, dated 2020)",
  "key": {"[1]": {"target": "T1, mouse glutathione transferase-tagged FXR-LBD (Mus musculus, UniProt Q60641)", "T1 construct": "mouse glutathione transferase-tagged FXR-LBD (generated in-house); made in house", "T1 sequence (Q60641 264-488 limits assumed)": "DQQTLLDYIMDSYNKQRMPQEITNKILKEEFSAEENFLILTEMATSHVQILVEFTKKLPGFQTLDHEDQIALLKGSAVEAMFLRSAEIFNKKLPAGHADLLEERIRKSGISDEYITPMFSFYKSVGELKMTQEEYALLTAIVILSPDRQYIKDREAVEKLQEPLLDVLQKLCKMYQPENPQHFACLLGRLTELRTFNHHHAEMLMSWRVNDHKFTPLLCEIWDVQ", "experiment": "FXR AlphaScreen coactivator recruitment assay (mouse)", "assay_type": "biochemical", "conditions": "for EC50: read-out: (mFXR) EC50; for Emax: read-out: (mFXR) Efficacy"}, "[2]": {"experiment": "Lipophilicity, 1-octanol/water partition coefficient (shake-flask)", "assay_type": "physicochemical", "conditions": "pH 8.00, ionized BA", "protocol": "The experiments were carried out on 1 mM initial bile salt solution buffered at pH 8.00 with 0.1 M potassium phosphate buffer to ensure complete ionization of the BA. BA concentration in the water phase before and after partition in 1-octanol was measured by HPLC-ESMS/MS as reported below."}, "TGR5 [3]": {"target": "T2, TGR5 (Homo sapiens, UniProt Q8TDU6)", "T2 sequence (Q8TDU6 1-330)": "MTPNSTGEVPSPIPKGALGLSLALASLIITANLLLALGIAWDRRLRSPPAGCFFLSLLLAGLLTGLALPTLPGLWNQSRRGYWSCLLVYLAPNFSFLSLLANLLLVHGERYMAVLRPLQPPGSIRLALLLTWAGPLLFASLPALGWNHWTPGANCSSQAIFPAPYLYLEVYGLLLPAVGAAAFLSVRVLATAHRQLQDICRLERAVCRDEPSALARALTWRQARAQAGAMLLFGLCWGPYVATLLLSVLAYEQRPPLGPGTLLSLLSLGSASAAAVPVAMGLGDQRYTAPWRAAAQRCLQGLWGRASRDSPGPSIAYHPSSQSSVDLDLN", "experiment": "TGR5 activity: cAMP in hTGR5 CHO-k1 cells", "assay_type": "cell-based", "design": "expressed in transfected cells; host or cells: CHO-k1", "conditions": "for Emax: 0.5 h, read-out: hTGR5 CHO Efficacy; for EC50: cAMP"}, "[4]": {"experiment": "Critical micellar concentration (surface tension / dye solubilization)", "assay_type": "physicochemical", "conditions": "BA sodium salts in 0.1 M NaCl, 25° C."}, "Water solubility": {"experiment": "Water solubility", "assay_type": "physicochemical", "conditions": "simulated gastric fluid, thermodynamic from solid, 0.1 M HCl, pH 1.00, 25° C., read-out: Ws", "protocol": "BA were suspended in 100 ml of 0.1 M HCl, pH 1.00, and the saturated solutions were transferred to a thermostat-equipped water bath maintained at 25° C. After incubation for 1 week, the solutions were filtered on a Millipore filter ([…]), and the concentration of BA was measured by HPLC-ESMS/MS as reported below."}, "[5]": {"experiment": "Critical micellar concentration (surface tension / dye solubilization)", "assay_type": "physicochemical"}, "bovine serum albumin": {"target": "bovine serum albumin (Bos taurus, UniProt P02769)", "sequence (P02769 25-607)": "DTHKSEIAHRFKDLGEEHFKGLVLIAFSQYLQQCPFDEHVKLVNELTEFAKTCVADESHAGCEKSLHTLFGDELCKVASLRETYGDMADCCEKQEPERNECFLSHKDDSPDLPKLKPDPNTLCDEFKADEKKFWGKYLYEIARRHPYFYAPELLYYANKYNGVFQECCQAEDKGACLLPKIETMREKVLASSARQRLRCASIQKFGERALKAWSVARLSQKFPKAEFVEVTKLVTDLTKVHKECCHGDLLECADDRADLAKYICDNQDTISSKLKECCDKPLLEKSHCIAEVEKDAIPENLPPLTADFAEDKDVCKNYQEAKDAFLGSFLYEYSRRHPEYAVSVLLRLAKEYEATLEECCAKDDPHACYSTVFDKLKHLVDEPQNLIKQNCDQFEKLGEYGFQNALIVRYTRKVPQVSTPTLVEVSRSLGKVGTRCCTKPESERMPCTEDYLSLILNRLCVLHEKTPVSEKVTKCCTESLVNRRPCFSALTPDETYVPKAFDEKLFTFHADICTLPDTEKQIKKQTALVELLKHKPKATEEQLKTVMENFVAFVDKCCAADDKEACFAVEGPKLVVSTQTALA", "experiment": "Albumin binding by equilibrium dialysis", "assay_type": "in vitro ADME", "conditions": "5% bovine serum albumin saline solution, 25° C."}, "TGR5 [6]": {"target": "T2, TGR5", "experiment": "TGR5 activity: intracellular cAMP levels, NCI-H716 cells (HTR-FRET)", "assay_type": "cell-based", "design": "endogenous in cells; host or cells: NCI-H716", "conditions": "for Emax: read-out: TGR5 (NCI-H716) Efficacy; for EC50: cAMP", "protocol": "Activation of TGR5 was assessed by measuring the level of cAMP using an HTR-FRET assay. Thus, NCI-H716 cells were cultured on 96-well plates coated with Matrigel (Corning, USA) (0.75 mg/ml) in DMEM supplemented with 10% FCS, 100 units/ml penicillin, and 100 μg/ml streptomycin sulphate. […] The level of intracellular cAMP was determined with Lance kit. Z′ factor was used to validate assays."}, "mTGR5": {"target": "T3, mTGR5 (Mus musculus, UniProt Q80SS6)", "T3 construct": "expressed in transfected cells; host or cells: CHO-Pi10 clone 4", "T3 sequence (Q80SS6 1-329)": "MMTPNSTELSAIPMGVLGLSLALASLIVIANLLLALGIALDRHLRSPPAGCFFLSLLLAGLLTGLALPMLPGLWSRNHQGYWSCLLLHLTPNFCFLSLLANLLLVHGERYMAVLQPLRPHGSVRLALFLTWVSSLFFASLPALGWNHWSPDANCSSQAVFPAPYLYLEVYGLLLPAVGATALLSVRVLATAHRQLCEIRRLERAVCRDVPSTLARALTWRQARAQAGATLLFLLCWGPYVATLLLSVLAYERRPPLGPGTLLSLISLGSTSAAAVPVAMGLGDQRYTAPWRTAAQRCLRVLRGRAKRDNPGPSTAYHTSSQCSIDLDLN", "experiment": "TGR5 activity: cAMP in mTGR5 CHO-Pi10 clone 4 cells", "assay_type": "cell-based", "conditions": "for Emax: 0.5 h, read-out: (mTGR5 CHO) Efficacy"}, "[7]": {"target": "T4, human glutathione transferase-tagged FXR-LBD (Homo sapiens, UniProt Q96RI1)", "T4 construct": "human glutathione transferase-tagged FXR-LBD (Life Technologies, USA); purchased Life Technologies, USA", "T4 sequence (Q96RI1 262-486 limits assumed)": "T1 sequence (Q60641 264-488 limits assumed) with D7H, Y8F, S46N, I50V, A95S, A98S, K107N, V125I, M174I, Y175H", "experiment": "FXR AlphaScreen coactivator recruitment assay (human);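 on hFXR Efficacy: CDCA at 50 µM taken as 100%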", "assay_type": "biochemical", "design": "Emax: dose or concentration left out as unconfirmed", "conditions": "for EC50: human FXR-LBD, AlphaScreen, read-out: hFXR EC50; for Emax: read-out: hFXR Efficacy"}, "[8]": {"conditions": "mouse FXR-LBD, value in parentheses"}, "[9]": {"conditions": "hTGR5 CHO cells, Ref. LCA 100% at 10 μM"}, "[10]": {"conditions": "1 h, NCI-H716 cells, Ref. LCA 100% at 10 μM"}, "[11]": {"conditions": "mTGR5 CHO cells, value in parentheses"}},
  "note": "Substitutions are numbered along the chain they refer to. Read-outs that look alike come from different tables or passages of the source.",
  "data": [
    {"smiles": "CC[C@H]1[C@@H](O)C2C3CC[C@H]([C@H](C)C(F)(F)C(=O)O)[C@@]3(C)CCC2[C@@]2(C)CC[C@@H](O)C[C@@H]12", "note": "(stereo partly shown) (hydrate or solvate)", "values": [
      {"measurement": "melting point", "value": "254 to 256", "unit": "°C"}
    ]},
    {"smiles": "CC[C@@H]1C2C[C@H](O)CC[C@]2(C)C2CC[C@@]3(C)C(CC[C@@H]3[C@H](C)Cc3nc(=O)o[nH]3)C2[C@@H]1O", "note": "(stereo partly shown) [Compound 14]", "values": [
      {"measurement": "EC50", "setting": "[1]; [8]", "value": 0.46, "unit": "µM"},
      {"measurement": "Emax", "setting": "[1]; [8]", "value": 264, "unit": "%"},
      {"measurement": "LogPA−", "setting": "[2]", "value": 1.9},
      {"measurement": "Emax", "setting": "TGR5 [3]; [9]", "value": "107 ± 1", "unit": "%"},
      {"measurement": "EC50", "setting": "TGR5 [3]; hTGR5 CHO cells", "value": "0.48 ± 0.3", "unit": "µM"},
      {"measurement": "CMC", "setting": "[4]", "value": 10, "unit": "mM"},
      {"measurement": "solubility thermodynamic at 1 week", "setting": "Water solubility", "value": 2020, "unit": "µM"},
      {"measurement": "CMpH", "setting": "[5]", "value": 5.0},
      {"measurement": "Albumin binding (%)", "setting": "bovine serum albumin", "value": 99, "unit": "%"},
      {"measurement": "pKa", "setting": "pKa", "value": 5},
      {"measurement": "Emax", "setting": "TGR5 [6]; [10]", "value": "110 ± 2", "unit": "%"},
      {"measurement": "EC50", "setting": "TGR5 [6]; NCI-H716 cells", "value": "1.6 ± 0.3", "unit": "µM"},
      {"measurement": "Emax", "setting": "mTGR5; [11]", "value": 111, "unit": "%"},
      {"measurement": "EC50", "setting": "mTGR5; [11]", "value": 0.9, "unit": "µM"},
      {"measurement": "EC50", "setting": "[7]", "value": "0.075 ± 0.01", "unit": "µM"},
      {"measurement": "Emax", "setting": "[7]", "value": "165 ± 15", "unit": "%"}
    ]},
    {"smiles": "CC[C@H]1[C@@H](O)[C@@H]2[C@H](CC[C@]3(C)[C@@H]([C@H](C)CCc4nn[nH]n4)[C@@H](O)C[C@@H]23)[C@@]2(C)CC[C@@H](O)C[C@@H]12", "note": "[Compound 17, 3α,7α,16β-Trihydroxy-6α-ethyl-23-(tetrazol-5-yl)-24-nor-5β-cholane]", "values": [
      {"measurement": "EC50", "setting": "[1]; [8]", "value": 2.3, "unit": "µM"},
      {"measurement": "Emax", "setting": "[1]; [8]", "value": 171, "unit": "%"},
      {"measurement": "LogPA−", "setting": "[2]", "value": 2.0},
      {"measurement": "Emax", "setting": "TGR5 [3]; [9]", "value": "103 ± 2", "unit": "%"},
      {"measurement": "EC50", "setting": "TGR5 [3]; hTGR5 CHO cells", "value": "0.1 ± 0.04", "unit": "µM"},
      {"measurement": "CMC", "setting": "[4]", "value": 11, "unit": "mM"},
      {"measurement": "solubility thermodynamic at 1 week", "setting": "Water solubility", "value": 5, "unit": "µM"},
      {"measurement": "CMpH", "setting": "[5]", "value": 9.0},
      {"measurement": "Albumin binding (%)", "setting": "bovine serum albumin", "value": 90, "unit": "%"},
      {"measurement": "pKa", "setting": "pKa", "value": 5.71},
      {"measurement": "Emax", "setting": "TGR5 [6]; [10]", "value": "119 ± 2", "unit": "%"},
      {"measurement": "EC50", "setting": "TGR5 [6]; NCI-H716 cells", "value": "1.2 ± 0.1", "unit": "µM"},
      {"measurement": "Emax", "setting": "mTGR5; [11]", "value": 101, "unit": "%"},
      {"measurement": "EC50", "setting": "mTGR5; [11]", "value": 0.8, "unit": "µM"},
      {"measurement": "EC50", "setting": "[7]", "value": "0.45 ± 0.05", "unit": "µM"},
      {"measurement": "Emax", "setting": "[7]", "value": "138 ± 9", "unit": "%"}
    ]},
    {"smiles": "CC[C@H]1[C@@H](O)C2C3CC[C@H]([C@H](C)CC(=O)NCCO)[C@@]3(C)CCC2[C@@]2(C)CC[C@@H](O)C[C@@H]12", "note": "(stereo partly drawn) [Compound 19, 3α,7α-Dihydroxy-6α-ethyl-N-(2-hydroxyethyl)-24-nor-5β-cholan-23-amide]", "values": [
      {"measurement": "EC50", "setting": "[1]; [8]", "value": 10, "unit": "µM"},
      {"measurement": "Emax", "setting": "[1]", "value": 122, "unit": "%"},
      {"measurement": "LogPA−", "setting": "[2]", "value": 1.0},
      {"measurement": "Emax", "setting": "TGR5 [3]; CHO", "value": "105 ± 2", "unit": "%"},
      {"measurement": "EC50", "setting": "TGR5 [3]; hTGR5 CHO cells", "value": "0.02 ± 0.008", "unit": "µM"},
      {"measurement": "CMC", "setting": "[4]", "value": 5, "unit": "mM"},
      {"measurement": "solubility thermodynamic at 1 week", "setting": "Water solubility", "value": 2150, "unit": "µM"},
      {"measurement": "CMpH", "setting": "[5]", "value": 1.3},
      {"measurement": "Albumin binding (%)", "setting": "bovine serum albumin", "value": 51, "unit": "%"},
      {"measurement": "pKa", "setting": "pKa", "value": 14.3},
      {"measurement": "Emax", "setting": "TGR5 [6]; NCI-H716, 1 h", "value": "128 ± 1", "unit": "%"},
      {"measurement": "EC50", "setting": "TGR5 [6]; NCI-H716 cells", "value": "0.16 ± 0.01", "unit": "µM"},
      {"measurement": "Emax", "setting": "mTGR5; CHO", "value": 106, "unit": "%"},
      {"measurement": "EC50", "setting": "mTGR5; [11]", "value": 0.08, "unit": "µM"},
      {"measurement": "EC50", "setting": "[7]", "value": "3 ± 1", "unit": "µM"},
      {"measurement": "Emax", "setting": "[7]", "value": "137 ± 2", "unit": "%"}
    ]}
  ]
}
